The values below come from patent US10794932B2, “Biosensor for the detection of a biological target, and method for manufacturing the same” (The Governing Council of The University of Toronto, priority 2016, dated 2020).

One assay addresses T1, rmTLR1 (Mus musculus, UniProt Q9EPQ1).
T1 construct: purchased R&D Systems RDS1476TR050
T1 sequence (Q9EPQ1 26-795): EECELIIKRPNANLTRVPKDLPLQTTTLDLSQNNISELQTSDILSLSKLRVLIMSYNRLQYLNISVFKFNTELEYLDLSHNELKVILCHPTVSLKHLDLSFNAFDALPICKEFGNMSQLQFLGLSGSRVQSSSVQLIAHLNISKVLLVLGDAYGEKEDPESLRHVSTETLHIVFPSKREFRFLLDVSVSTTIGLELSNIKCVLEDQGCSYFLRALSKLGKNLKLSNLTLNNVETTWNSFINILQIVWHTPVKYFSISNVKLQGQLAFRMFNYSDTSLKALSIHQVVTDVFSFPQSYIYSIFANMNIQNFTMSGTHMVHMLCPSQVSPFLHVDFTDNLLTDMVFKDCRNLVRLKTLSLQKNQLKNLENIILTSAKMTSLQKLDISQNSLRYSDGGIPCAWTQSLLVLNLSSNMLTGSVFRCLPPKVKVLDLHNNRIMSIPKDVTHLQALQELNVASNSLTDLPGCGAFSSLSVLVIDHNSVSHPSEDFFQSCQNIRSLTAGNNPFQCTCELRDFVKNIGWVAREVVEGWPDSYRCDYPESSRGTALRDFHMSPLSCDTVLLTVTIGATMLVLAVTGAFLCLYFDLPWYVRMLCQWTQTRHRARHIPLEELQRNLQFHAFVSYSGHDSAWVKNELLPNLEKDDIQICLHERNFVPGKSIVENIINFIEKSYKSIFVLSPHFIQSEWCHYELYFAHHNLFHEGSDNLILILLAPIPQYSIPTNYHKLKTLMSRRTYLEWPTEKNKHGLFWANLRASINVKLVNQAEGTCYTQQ
Put plainly: Label-free TLR1 sensor, EIS detection of Pam3CSK4 (Example 7). Format: binding. Conditions: for delta Rct %: 20 minutes; for Rct: before immersion 10250. The procedure:
TLR sensors were prepared using fresh, cleaned gold electrodes. The electrodes were immersed in a 2 mM 1-lipoic acid n-hydroxysuccinimide ester (LPA) ethanol solution for 48 hours at 277 K. The electrodes were then rinsed thoroughly using absolute ethanol and blown dry under nitrogen before incubation in 200 μg/ml rmTLR1, 200 μg/ml rmTLR2 and 200 μg/ml ‘rmTLR1 and 2’ mixture for 72 hours at 277 K. The rmTLR1 and 2 mixture was prepared by mixing 200 μg/ml rmTLR1 and 200 μg/ml rmTLR2 with a volume ratio of 1:1. The final concentration of each component was 100 μg/ml and the total concentration of the combined TLR protein content was 200 μg/ml. Following the supplier's recommended conditions, all TLRs were prepared in PBS buffer (pH˜7.4). The electrodes were rinsed with an excess volume of Milli-Q water and blown dry under nitrogen. An ethanolamine-tris buffer solution was prepared by dissolving 1.2 g of ethanolamine and 0.121 g of Tris base in 20 mL of water, the pH was adjusted to 8.4 using hydrochloric acid. TLR-immobilized electrodes were incubated in the ethanolamine solution for one hour at room temperature in order to block any remaining unreacted LPA amine sites. The fabricated sensors with immobilized, standalone rmTLR3, rmTLR4/MD-2 and rmTLR5, used for the selectivity test, were prepared using the same protocol described above.
Pam3CSK4 was dissolved in 10 mM HEPES aqueous buffer at pH˜7.4. The blocked rmTLR biosensors were incubated in Pam3CSK4 at various concentrations for 20 minutes. The electrodes were always washed thoroughly with same HEPES buffer (pH˜7.4) after the incubation.
All electrochemical measurements were carried out using a cell with a three-electrode configuration in an enclosed Faraday cage. CV and EIS measurements were completed using a CHI-660b potentiostat (CH Instruments, Austin, Tex.). rmTLR-modified gold electrodes and platinum (Pt) wire were used as the working electrode and the counter electrode, respectively. A reference electrode (Ag/AgCl/3.0M KCl) and a salt bridge, filled with an agar and 1M KNO3 aqueous solution, were inserted to minimize the diffusion of chloride ions into the electrolyte solution. The agar solution was prepared by dissolving 2.0 grams of agar and 10.1 g KNOB in 100 mL of water. The CV and EIS electrolyte was made in a 10 mM HEPES aqueous buffer at pH˜7.4, which consisted of a 5 mM K4Fe(CN)6/5 mM K3Fe(CN)6 as a redox couple with 1M of NaClO4 as the supporting electrolyte. For consistency, the electrochemical measurements were carried out with open-circuit potentials. EIS experiments were conducted in the frequency range of 100,000 to 0.1 Hz with an amplitude of 5 mV. The experimental EIS curves were evaluated to determine the film resistance using ZSimpWin 2.0 software.

For a further assay, the target named is T2, TLR1 (Mus musculus, UniProt Q9EPQ1).
T2 sequence (Q9EPQ1 26-795): T1 sequence (Q9EPQ1 26-795)
Put plainly: TLR multiplex sensor, EIS film resistance before/after exposure (Example 5), TLR1 sensor. Format: binding. Conditions: exposure 20 minutes. On the procedure:
For each multiplex TLR sensor, 5 separate gold electrodes were used for binding TLR 1 to 5. The 5 modified electrodes/sensors were exposed to the analyte solution and evaluated one by one using potentiostats and electrochemical cells.
The preparation of each TLR biosensor was evaluated using EIS. It is understood that cyclic voltammetry as well as electrochemical impedance microscopy can also be used for monitoring the modification. […] Ethanolamine was then applied to deactivate unreacted LPA. Due to dissociation of unspecific absorbed TLR, the Rct dropped slightly. Experimental curves were evaluated using a model to obtain the Rct values, which can be seen at FIG. 9. Measurements from at least triplicated samples prepared were used to obtain statistic information.
The TLR1 sensor was exposed to an E. coli K12 whole-cell buffer solution for 20 minutes. The sensor was then removed, washed thoroughly and characterized in the electrochemical cell measuring the Rct again. The difference in Rct before and after exposure is the response triggered by the target. The same protocol was carried out for all remaining TLRs (TLRs 2-5) to obtain one set of pattern for E. coli K12 (FIGS. 10b to 10e). Multiple sets were investigated for statistical relevance. […]

On rmTLR1, Pam3CSK4 displayed a limit of detection of 10 µM. Besides, the “delta Rct %” value at rmTLR1 (5 μM) is listed as “not significant”; on rmTLR1 (25 μM), 59±7%; at rmTLR1 (50 μM) it was 98±10%; on TLR1 it was 20%. In addition, the Rct at rmTLR1 (after 5 μM) is 10780 Ω · cm^2; at rmTLR1 (after 10 μM), 12760 Ω · cm^2; at rmTLR1 (after 25 μM), 16840 Ω · cm^2; at rmTLR1 (after 50 μM) it was 21010 Ω · cm^2.
